{
  "source": "patent US20130108563A1",
  "about": "“COMPOSITIONS COMPRISING AT LEAST ONE AQUEOUS PHASE AND AT LEAST ONE FATTY PHASE WHICH COMPRISES AVERMECTIN COMPOUNDS” (Galderma S.A., priority 2006, published 2013)",
  "key": {"[1]": {"assay": "Maximum solubility of ivermectin in oily-phase excipients", "assay_type": "physicochemical", "settings": "T1 hour, ambient temperature", "description": "(§1) Maximum solubility of ivermectin at T1 hour at ambient temperature (AT) in various oily-phase excipients and 1 month stability at AT and T40° C."}, "[2]": {"assay": "1-month stability of ivermectin in oily-phase excipients", "assay_type": "physicochemical", "description": "as §1"}},
  "data": [
    {"substance": "ivermectin", "values": [
      {"measurement": "Maximum solubility of ivermectin % (w/w)", "setting": "[1]; in C12-C15 alkyl benzoate", "value": "1.6 % (w/w)"},
      {"measurement": "Maximum solubility of ivermectin % (w/w)", "setting": "[1]; in Diisopropyl adipate", "value": "10.4 % (w/w)"},
      {"measurement": "Maximum solubility of ivermectin % (w/w)", "setting": "[1]; in Guerbet alcohol", "value": "2.5 % (w/w)"},
      {"measurement": "Maximum solubility of ivermectin % (w/w)", "setting": "[1]; in PPG 15 stearyl ether", "value": "3.3 % (w/w)"},
      {"measurement": "1-month stability at 40° C.", "setting": "[2]; in Diisopropyl adipate", "value": "Stable"},
      {"measurement": "1-month stability at AT", "setting": "[2]; in Diisopropyl adipate", "value": "Stable"},
      {"measurement": "1-month stability at 40° C.", "setting": "[2]; in PPG 15 stearyl ether", "value": "Stable"},
      {"measurement": "1-month stability at AT", "setting": "[2]; in PPG 15 stearyl ether", "value": "Stable"}
    ]}
  ]
}
